{"source": "ChEMBL document CHEMBL1147166", "about": "“Structure-activity relationships of methoctramine-related polyamines as muscarinic antagonist: effect of replacing the inner polymethylene chain with cyclic moieties” (Bioorg Med Chem, 2007)", "key": {"Mus musculus [1]": {"system": "Mus musculus", "test": "Antinociceptive activity in mouse assessed as licking latency at 0.03 ug, icv after 60 mins by hot plate method", "assay_type": "functional"}, "Mus musculus [2]": {"system": "Mus musculus", "test": "Antinociceptive activity in mouse assessed as licking latency at 1.0 ug, icv after 15 mins by hot plate method", "assay_type": "functional"}, "Acetylcholinesterase": {"molecular_target": "Acetylcholinesterase (Homo sapiens, UniProt P22303)", "sequence (P22303 whole entry)": "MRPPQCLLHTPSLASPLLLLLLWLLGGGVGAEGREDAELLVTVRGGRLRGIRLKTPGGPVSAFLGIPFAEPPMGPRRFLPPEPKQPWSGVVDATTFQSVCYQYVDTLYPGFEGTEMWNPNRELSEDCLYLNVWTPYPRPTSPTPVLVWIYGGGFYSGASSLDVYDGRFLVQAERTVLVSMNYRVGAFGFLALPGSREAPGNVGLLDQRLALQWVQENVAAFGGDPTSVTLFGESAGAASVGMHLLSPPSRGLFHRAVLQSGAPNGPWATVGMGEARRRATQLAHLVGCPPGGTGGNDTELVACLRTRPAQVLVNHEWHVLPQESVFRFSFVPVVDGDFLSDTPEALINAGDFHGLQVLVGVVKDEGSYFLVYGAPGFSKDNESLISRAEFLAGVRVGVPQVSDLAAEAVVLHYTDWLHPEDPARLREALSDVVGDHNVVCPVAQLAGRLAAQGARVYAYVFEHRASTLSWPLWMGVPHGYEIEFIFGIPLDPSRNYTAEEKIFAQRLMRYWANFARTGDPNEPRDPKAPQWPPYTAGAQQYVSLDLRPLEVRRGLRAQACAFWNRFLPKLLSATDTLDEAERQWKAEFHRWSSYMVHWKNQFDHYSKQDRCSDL", "test": "Inhibition of human erythrocyte recombinant AchE after 20 mins"}, "Mus musculus [3]": {"system": "Mus musculus", "test": "Antinociceptive activity in mouse assessed as licking latency at 0.3 ug, icv after 30 mins by hot plate method", "assay_type": "functional"}, "[4]": {"molecular_target": "T1, Muscarinic acetylcholine receptor M1 (Homo sapiens, UniProt P11229)", "T1 sequence (P11229 whole entry)": "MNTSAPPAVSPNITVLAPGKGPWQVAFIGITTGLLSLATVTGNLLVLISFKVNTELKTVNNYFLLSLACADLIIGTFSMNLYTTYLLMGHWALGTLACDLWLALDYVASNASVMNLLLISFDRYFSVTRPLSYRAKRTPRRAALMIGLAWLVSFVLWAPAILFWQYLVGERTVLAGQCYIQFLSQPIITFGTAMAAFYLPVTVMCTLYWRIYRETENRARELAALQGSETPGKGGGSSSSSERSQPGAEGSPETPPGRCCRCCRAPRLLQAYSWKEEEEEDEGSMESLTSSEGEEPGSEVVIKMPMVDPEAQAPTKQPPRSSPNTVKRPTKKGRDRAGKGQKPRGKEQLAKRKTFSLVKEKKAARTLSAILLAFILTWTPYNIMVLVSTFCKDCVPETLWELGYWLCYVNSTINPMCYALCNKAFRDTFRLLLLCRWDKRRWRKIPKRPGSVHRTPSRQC", "test": "Displacement of [3H] N-methyl-scopolamine chloride from human muscarinic receptor M1 expressed in CHO cells", "assay_type": "cell-based"}, "Rattus norvegicus": {"organism": "Rattus norvegicus", "test": "Increase in Ach release in rat parietal cortex by cerebral microdialysis test", "assay_type": "functional"}, "[5]": {"molecular_target": "T2, Muscarinic acetylcholine receptor M2 (Homo sapiens) (UniProt P08172)", "T2 sequence (whole entry)": "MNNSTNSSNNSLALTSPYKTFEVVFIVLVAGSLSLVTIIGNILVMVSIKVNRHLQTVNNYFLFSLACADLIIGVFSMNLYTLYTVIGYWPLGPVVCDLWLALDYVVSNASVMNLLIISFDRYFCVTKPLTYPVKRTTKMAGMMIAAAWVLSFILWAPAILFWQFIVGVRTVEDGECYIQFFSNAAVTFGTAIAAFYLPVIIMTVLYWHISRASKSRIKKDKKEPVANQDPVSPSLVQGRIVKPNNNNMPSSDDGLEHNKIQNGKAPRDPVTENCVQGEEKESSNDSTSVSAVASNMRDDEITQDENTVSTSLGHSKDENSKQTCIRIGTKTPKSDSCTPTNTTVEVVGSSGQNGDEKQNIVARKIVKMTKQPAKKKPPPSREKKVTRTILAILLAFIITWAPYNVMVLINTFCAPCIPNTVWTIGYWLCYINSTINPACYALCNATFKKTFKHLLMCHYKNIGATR", "test": "Antagonist potency at muscarinic receptor M2 in guinea pig atrium", "assay_type": "functional, tissue-based", "settings": "Cavia porcellus; Cardiac atrium; target entry is the homologue from another species"}}, "note": "Active and inactive are the calls of the source. The rule behind the calls is not given here."}
{"smiles": "COc1ccccc1CNCCCCCCN1CCC(CCC2CCN(CCCCCCNCc3ccccc3OC)CC2)CC1", "values": [{"measurement": "Time", "setting": "Mus musculus [1]", "result": 16.1, "unit": "s"}, {"measurement": "Time", "setting": "Mus musculus [2]", "result": 19.3, "unit": "s"}, {"measurement": "IC50", "setting": "Acetylcholinesterase", "result": 1290, "unit": "nM"}, {"measurement": "Time", "setting": "Mus musculus [3]", "result": 25, "unit": "s"}, {"measurement": "Ki", "setting": "[4]", "result": 20, "unit": "nM"}, {"measurement": "Activity", "setting": "Rattus norvegicus", "result": "Active"}, {"measurement": "pKb", "setting": "[5]", "result": 7.98}]}
